The target in the test is T1, GlyT1 transporter (Homo sapiens, UniProt P48067).
T1 construct: endogenously expressing the GlyT1 transporter; host or cells: SK-N-MC human neuroblastoma cells
T1 sequence (P48067 1-706): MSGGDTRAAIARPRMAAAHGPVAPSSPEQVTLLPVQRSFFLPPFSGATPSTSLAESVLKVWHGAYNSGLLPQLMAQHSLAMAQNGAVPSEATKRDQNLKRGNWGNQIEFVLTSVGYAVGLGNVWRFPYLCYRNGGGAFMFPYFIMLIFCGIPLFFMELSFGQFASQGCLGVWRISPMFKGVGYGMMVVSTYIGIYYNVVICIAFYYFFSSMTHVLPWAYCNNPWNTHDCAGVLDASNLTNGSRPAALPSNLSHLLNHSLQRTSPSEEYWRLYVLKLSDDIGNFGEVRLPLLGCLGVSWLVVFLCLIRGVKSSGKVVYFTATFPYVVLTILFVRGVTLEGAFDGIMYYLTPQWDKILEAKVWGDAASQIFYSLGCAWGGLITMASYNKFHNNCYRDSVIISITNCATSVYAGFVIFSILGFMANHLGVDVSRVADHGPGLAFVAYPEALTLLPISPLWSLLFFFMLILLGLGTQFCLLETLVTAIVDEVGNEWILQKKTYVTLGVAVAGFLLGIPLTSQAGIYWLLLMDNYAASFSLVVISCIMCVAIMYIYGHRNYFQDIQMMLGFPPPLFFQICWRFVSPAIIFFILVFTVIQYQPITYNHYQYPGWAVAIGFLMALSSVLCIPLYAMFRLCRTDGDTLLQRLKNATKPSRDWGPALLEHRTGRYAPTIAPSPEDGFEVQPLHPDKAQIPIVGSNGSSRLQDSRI
Put plainly: GlyT1 assay: 3H-glycine uptake into SK-N-MC cells (Cytostar-T format). The class given is cell-based. The following applies: glycine uptake in human SK-N-MC cells endogenously expressing GlyT1; 500 nM glycine, 1% DMSO, signal recorded over 60 min. From the text:
Cells expressing either endogenously the GlyT1 transporter like JAR cells (human placental choriocarcinoma cells; e.g. WO 2008/002583) or SK-N-MC cells (human neuroblastoma cells; Depoortere et al., 2005. Neuropsychopharmacology 30:1963-1985) or primary neurons or cells which have been transfected with a plasmid encoding the cDNA of a functional GlyT1 transporter and stably or transiently express GlyT1 (e.g. WO 2006/08200) can be used to monitor glycine uptake in cells. Different protocols for determination of the glycine uptake into the cells described above can be applied in order to identify and rank compounds which interfere with glycine uptake in the selected cell.
Compounds outlined in the examples below were characterized using human SK-N-MC cells (ATCC number HTB-10) endogenously expressing the GlyT1 transporter which is responsible for the uptake of glycine into these cells and the uptake of glycine into these cells is monitored using the Cytostar-T assay format (GE Healthcare, RPNQ0162) which is based on the radioactive glycine taken up by the cells and brought into proximity with the scintillant contained within the base of the plate. The radioactive decay is converted to a light signal based on the integration of the scintillation matrix into the assay plate. The uptake is recorded as kinetic and the slope of the measured counts over time is used to calculate IC50.
In detail, SK-N-MC cells are seeded into 96-well Cytostar-T assay plates at a density of 200,000 cells/well and grown for 16-18 hours to confluence in growth medium as recommended by ATCC. Before starting the assay, cells are washed once with HBSS (Hank's buffered salt solution; Sigma, H8264) cont. 5 mM alanine (referred in here as HBSS/Ala) and afterwards the following reagents are added: • 1. 80 μl/well HBSS/Ala • 2. 20 μl/well of HBSS/Ala containing 6× the concentration of compound in 6% DMSO • 3. approx. 5-10 min incubation • 4. 20 μl/well 3 μM glycine (^3H-glycine (Perkin Elmer, NET004001MC, specific activity: 52 Ci/mmol; diluted 1:1 with unlabelled glycine) in HBSS/Ala.
In the final assay, glycine concentration is 500 nM (250 nM derived from the ^3H-glycine Perkin Elmer, 250 nM unlabelled glycine), DMSO concentration is 1%.
The assay plate is immediately after addition of the ^3H-glycine placed into a Micro-Beta Counter (Perkin Elmer) and the signal is recorded over 60 min.
To calculate uptake, the slope in the linear range of the kinetics is determined using GraphPadPrism and for the different slopes at the selected concentrations IC50 are calculated by curve fitting using the software GraphPadPrism.
Maximal glycine uptake in every experiment is determined by incubation of SK-N-MC cells with substrate but without inhibitor. Unspecific uptake of glycine by the cells is determined by incubating the cells with substrate and a reference GlyT1 inhibitor e.g. 10 μM RG-1678 (Pinard et al., 2010, J. Med. Chem. 53(12):4603-14).
Compounds are diluted from 10 mM stocks and in general, for IC50 determination 8 compound concentrations are used.
What is called IC50 is the concentration that inhibits the measured activity by half. Low values mean greater potency in that assay, high ones weaker potency in that assay. `C[C@H](Oc1ccc(S(C)(=O)=O)cc1C(=O)N1CC2CC2(c2noc(C3CC(F)(F)C3)n2)C1)C(F)(F)F` (mixture of isomers) [Example 13, {1-[5-(3,3-Difluoro-cyclobutyl)-[1,2,4]oxadiazol-3-yl]-3-aza-bicyclo[3.1.0]hex-3-yl}-[5-methanesulfonyl-2-(2,2,2-trifluoro-1-methyl-ethoxy)-phenyl]-methanone]: the IC50 is 9 nM.
Consider `C[C@H](Oc1ccc(S(C)(=O)=O)cc1C(=O)N1CC2CC2(c2noc(C3(C)COC3)n2)C1)C(F)(F)F` (mixture of isomers) [Example 62, [5-Methanesulfonyl-2-(2,2,2-trifluoro-1-methyl-ethoxy)phenyl]-{1-[5-(3-methyl-oxetan-3-yl)-[1,2,4]oxadiazol-3-yl]-3-aza-bicyclo[3.1.0]hex-3-yl}-methanone], for which the concentration for half-maximal inhibition (IC50) came out at 10 nM.
As for `COC1(c2nc(C34CC3CN(C(=O)c3cc(S(C)(=O)=O)ccc3O[C@H](C)C(F)(F)F)C4)no2)CC1` (single isomer, unassigned) [Example 121, [5-Methanesulfonyl-2-(2,2,2-trifluoro-1-methyl-ethoxy)-phenyl]-{1-[5-(1-methoxy-cyclopropyl)-[1,2,4]oxadiazol-3-yl]-3-aza-bicyclo[3.1.0]hex-3-yl}-methanone], the IC50 is 349 nM.
Compound `CCS(=O)(=O)c1ccc(O[C@@H](C)C(F)(F)F)c(C(=O)N2CC3CC3(c3noc(C(F)(F)F)n3)C2)c1` (mixture of isomers) [Example 40, [5-Ethanesulfonyl-2-(2,2,2-trifluoro-1-methyl-ethoxy)-phenyl]-[1-(5-trifluoromethyl-[1,2,4]oxadiazol-3-yl)-3-aza-bicyclo[3.1.0]hex-3-yl]-methanone] yielded an IC50 of 19 nM.
Compound `C[C@@H](Oc1ccc(S(C)(=O)=O)cc1C(=O)N1CC2CC2(c2nc(C(F)(F)F)co2)C1)C(F)(F)F` (single isomer, unassigned) [Example 114, [5-Methanesulfonyl-2-(2,2,2-trifluoro-1-methyl-ethoxy)-phenyl]-[1-(4-trifluoromethyl-oxazol-2-yl)-3-aza-bicyclo[3.1.0]hex-3-yl]-methanone] yielded a 50% inhibitory concentration (IC50) of 171 nM.
Compound `COC1(c2nc(C34CC3CN(C(=O)c3cc(S(C)(=O)=O)ccc3O[C@@H](C)C(F)(F)F)C4)no2)CC1` (mixture of isomers) [Example 116, [5-Methanesulfonyl-2-(2,2,2-trifluoro-1-methyl-ethoxy)-phenyl]-{1-[5-(1-methoxy-cyclopropyl)-[1,2,4]oxadiazol-3-yl]-3-aza-bicyclo[3.1.0]hex-3-yl}-methanone] registered an IC50 of 10 nM.
Take `CCS(=O)(=O)c1ccc(O[C@H](C)C(F)(F)F)c(C(=O)N2CC3CC3(c3nccc(C(F)(F)F)n3)C2)c1` (mixture of isomers) [Example 76, [5-Ethanesulfonyl-2-(2,2,2-trifluoro-1-methyl-ethoxy)-phenyl]-[1-(4-trifluoromethyl-pyrimidin-2-yl)-3-aza-bicyclo[3.1.0]hex-3-yl]-methanone]: the IC50 is 10 nM.
`Cc1noc(C23CC2CN(C(=O)c2cc(S(C)(=O)=O)ccc2O[C@@H](C)C(F)(F)F)C3)n1` (mixture of isomers) [Example 34, [5-Methanesulfonyl-2-(2,2,2-trifluoro-1-methyl-ethoxy)-phenyl]-[1-(3-methyl-[1,2,4]oxadiazol-5-yl)-3-aza-bicyclo[3.1.0]hex-3-yl]-methanone] yielded an IC50 of 98 nM.
Regarding `Cc1cnc(C23CC2CN(C(=O)c2cc(S(C)(=O)=O)ccc2O[C@@H](C)C(F)(F)F)C3)o1` (mixture of isomers) [Example 21, [5-Methanesulfonyl-2-(2,2,2-trifluoro-1-methyl-ethoxy)-phenyl]-[1-(5-methyl-oxazol-2-yl)-3-aza-bicyclo[3.1.0]hex-3-yl]-methanone], the 50% inhibitory concentration (IC50) was 21 nM.
Then `C[C@H](Oc1ccc(C#N)cc1C(=O)N1CC2CC2(c2noc(C(F)(F)F)n2)C1)C(F)(F)F` (mixture of isomers) [Example 88, 4-(2,2,2-Trifluoro-1-methyl-ethoxy)-3-[1-(5-trifluoromethyl-[1,2,4]oxadiazol-3-yl)-3-aza-bicyclo[3.1.0]hexane-3-carbonyl]-benzonitrile], with 168 nM; and `C[C@@H](Oc1ccc(S(C)(=O)=O)cc1C(=O)N1CC2CC2(c2ncc(C(F)(F)F)o2)C1)C(F)(F)F` (single isomer, unassigned) [Example 130, [5-Methanesulfonyl-2-(2,2,2-trifluoro-1-methyl-ethoxy)-phenyl]-[1-(5-trifluoromethyl-oxazol-2-yl)-3-aza-bicyclo[3.1.0]hex-3-yl]-methanone], with 3 nM; and `C[C@H](Oc1ccc(S(C)(=O)=O)cc1C(=O)N1CC2CC2(c2cccc(C(F)(F)F)n2)C1)C(F)(F)F` (single isomer, unassigned) [Example 56, [5-Methanesulfonyl-2-(2,2,2-trifluoro-1-methyl-ethoxy)-phenyl]-[1-(6-trifluoromethyl-pyridin-2-yl)-3-aza-bicyclo[3.1.0]hex-3-yl]-methanone], with 233 nM.
In turn, `C[C@@H](Oc1ccc(S(C)(=O)=O)cc1C(=O)N1CC2CC2(c2cc(C(F)(F)F)on2)C1)C(F)(F)F` (mixture of isomers) [Example 49, [5-Methanesulfonyl-2-(2,2,2-trifluoro-1-methyl-ethoxy)-phenyl]-[1-(5-trifluoromethyl-isoxazol-3-yl)-3-aza-bicyclo[3.1.0]hex-3-yl]-methanone] showed an IC50 of 19 nM.
On to `Cc1cc(C23CC2CN(C(=O)c2cc(S(C)(=O)=O)ccc2O[C@@H](C)C(F)(F)F)C3)no1` (mixture of isomers) [Example 52, [5-Methanesulfonyl-2-(2,2,2-trifluoro-1-methyl-ethoxy)-phenyl]-[1-(5-methyl-isoxazol-3-yl)-3-aza-bicyclo[3.1.0]hex-3-yl]-methanone], for which half-maximal inhibition (IC50) required 15 nM.
`C[C@H](Oc1ccc(S(C)(=O)=O)cc1C(=O)N1CC2(C)CC2(c2noc(C(F)(F)F)n2)C1)C(F)(F)F` (mixture of isomers) [Example 157, [5-Methanesulfonyl-2-(2,2,2-trifluoro-1-methyl-ethoxy)-phenyl]-[1-methyl-5-(5-trifluoromethyl-[1,2,4]oxadiazol-3-yl)-3-aza-bicyclo[3.1.0]hex-3-yl]-methanone] showed an IC50 of 147 nM.
In the case of `CCS(=O)(=O)c1ccc(O[C@@H](C)C(F)(F)F)c(C(=O)N2CC3CC3(c3cc(C(F)(F)F)on3)C2)c1` (mixture of isomers) [Example 102, [5-Ethanesulfonyl-2-(2,2,2-trifluoro-1-methyl-ethoxy)-phenyl]-[1-(5-trifluoromethyl-isoxazol-3-yl)-3-aza-bicyclo[3.1.0]hex-3-yl]-methanone] it was 18 nM; in that of `C[C@@H](Oc1ccc(S(C)(=O)=O)cc1C(=O)N1CC2CC2(c2noc(C(F)(F)F)n2)C1)C(F)(F)F` (single isomer, unassigned) [Example 5, [5-Methanesulfonyl-2-(2,2,2-trifluoro-1-methyl-ethoxy)-phenyl]-[1-(5-trifluoromethyl-[1,2,4]oxadiazol-3-yl)-3-aza-bicyclo[3.1.0]hex-3-yl]-methanone], 1380 nM.
